Data: patent US7259004B1, “Endophytic streptomycetes from higher plants with biological activity” (Montana State University, priority 2002, dated 2007)

Tested on: M. tuberculosis MDR-P (drug resistant)
Test: microbe, parasite or virus in culture
Format: cell-based, Mycobacterium tuberculosis
Conditions: for IC50 M. tuberculosis MDR-P (drug resistant): 7H11 agar with 10% OADC

Compound | IC50 (Mycobacterium tuberculosis, read-out: IC50 M. tuberculosis MDR-P (drug resistant)) | IC50 M. tuberculosis MDR-P (drug resistant)
CO[C@H]1/C=C/O[C@@]2(C)Oc3c(C)c(O)c4c(O)c(c(/C=N/N5CCN(C)CC5)c(O)c4c3C2=O)NC(=O)/C(C)=C\C=C\[C@H](C)[C@H](O)[C@@H](C)[C@@H](O)[C@@H](C)[C@H](OC(C)=O)[C@@H]1C [Rifampicin, reference compound] | > 150 µg/mL | –
munumbicin B | – | 10 micrograms/ml
munumbicin C | – | >125 micrograms/ml
